Data on 8 compounds can be found in patent US20100035867A1 (priority 2006, published 2010).

One experiment deals with guanylyl cyclase type C (Homo sapiens, UniProt P25092). Conditions: literature comparator; read-out: potency (IC50); cited from earlier work.
Experiment [1] has as its target guanylyl cyclase type C (GC-C) (Homo sapiens, UniProt P25092). Briefly: STa-induced activation of GC-C in T84 cells (cyclic GMP accumulation, ELISA). It is filed as cell-based. Also noted: endogenous in cells; host or cells: T84 cells. In general terms: An ELISA detects its analyte on a solid surface through an enzyme-linked reagent.
Experiment [2] concerns adenylyl cyclase or guanylyl cyclase. It is filed as cell-based. Particulars: read-out: typical IC50.

guanylyl cyclase type C (GC-C), sequence (P25092 24-1073): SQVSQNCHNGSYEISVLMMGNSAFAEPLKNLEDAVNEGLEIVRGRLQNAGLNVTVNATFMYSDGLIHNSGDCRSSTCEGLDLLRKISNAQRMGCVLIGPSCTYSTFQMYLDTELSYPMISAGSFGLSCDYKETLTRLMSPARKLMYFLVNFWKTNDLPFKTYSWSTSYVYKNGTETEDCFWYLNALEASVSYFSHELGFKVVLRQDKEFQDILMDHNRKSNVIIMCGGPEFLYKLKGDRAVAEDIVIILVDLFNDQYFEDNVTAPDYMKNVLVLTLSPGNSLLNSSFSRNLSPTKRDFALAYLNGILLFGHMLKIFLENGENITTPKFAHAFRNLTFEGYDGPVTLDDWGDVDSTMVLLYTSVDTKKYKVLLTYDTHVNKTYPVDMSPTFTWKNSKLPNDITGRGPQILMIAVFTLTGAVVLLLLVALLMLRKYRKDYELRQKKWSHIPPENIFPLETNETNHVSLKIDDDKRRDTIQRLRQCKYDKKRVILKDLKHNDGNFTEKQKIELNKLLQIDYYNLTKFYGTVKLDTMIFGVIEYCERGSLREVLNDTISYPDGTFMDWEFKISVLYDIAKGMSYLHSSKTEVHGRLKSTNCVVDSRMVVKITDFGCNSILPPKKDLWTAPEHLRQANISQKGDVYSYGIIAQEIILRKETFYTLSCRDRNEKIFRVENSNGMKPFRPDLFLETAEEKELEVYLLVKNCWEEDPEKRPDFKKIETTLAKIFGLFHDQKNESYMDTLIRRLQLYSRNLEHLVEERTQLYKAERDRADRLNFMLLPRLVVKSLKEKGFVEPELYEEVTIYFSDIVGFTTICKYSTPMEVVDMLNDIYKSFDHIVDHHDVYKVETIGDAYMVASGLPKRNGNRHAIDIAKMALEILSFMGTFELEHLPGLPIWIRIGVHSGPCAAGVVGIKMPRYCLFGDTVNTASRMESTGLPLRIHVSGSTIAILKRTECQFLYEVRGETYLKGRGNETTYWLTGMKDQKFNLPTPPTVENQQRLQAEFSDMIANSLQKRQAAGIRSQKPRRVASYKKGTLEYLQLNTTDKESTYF
guanylyl cyclase type C, sequence (P25092 24-1073): as above

`Nc1nc(Cl)nc2c1ncn2[C@@H]1O[C@H](CO)[C@@H](O)[C@H]1O` [2-chloroadenosine]: the IC50 at guanylyl cyclase type C is approximately 50 µM. Turning to `Cn1c2c(c(=O)n(C)c1=O)C(c1ccc(O)c(O)c1)C1C(=O)c3ccccc3C1=N2` (centres unmarked) [IIIa], the “inhibition of STa-induced activation of GC-C (FIG. 2)” value (“inhibition … (FIG. 2)” for short) in experiment [1] was “inhibition”.

Take `Cn1c2c(c(=O)n(C)c1=O)C(c1ccc(O)c(O)c1)C1=C(N2)c2ccccc2C1=O` (centres unmarked) [IIIb]: in experiment [1], the “inhibition … (FIG. 2)” value was “inhibition”. The same measure, in the same setting: the entry for `COc1cc(C2C3=C(Nc4c2c(=O)n(C)c(=O)n4C)c2ccccc2C3=O)ccc1O` (centres unmarked) [IVb] is “inhibition”; for `CC(C)C(=O)N1C2=C(C(=O)c3ccccc32)C(c2ccc(Cl)cc2)c2c1n(C)c(=O)n(C)c2=O` (centres unmarked) [VII] it is “inhibition”. On to `CCCC(=O)N1C2=C(C(=O)c3ccccc32)C(c2ccc(Cl)cc2)c2c1n(C)c(=O)n(C)c2=O` (centres unmarked) [VI], for which the “inhibition … (FIG. 2)” value in experiment [1] is reported as “inhibition”.

In the case of `CCOc1cc(C2C3=C(Nc4c2c(=O)n(C)c(=O)n4C)c2ccccc2C3=O)ccc1O` (centres unmarked) [Vb], in experiment [1], the “inhibition … (FIG. 2)” value is “inhibition”.

For `Cn1c2c(c(=O)n(C)c1=O)C(c1cccc(Br)c1)C1C(=O)c3ccccc3C1=N2` (centres unmarked) [compound IIa, 5-(3-bromophenyl)-1,3-dimethyl-5,11-dihydro-1H-indeno[2′,1′:5,6]pyrido[2,3-d]pyrimidine-2,4,6-trione], the IC50 in experiment [2] was approximately 5 µM. The “inhibition … (FIG. 2)” value in experiment [1] is given as “inhibition”. The compound further displayed an inhibition at 50 µM in experiment [1] (100 nM STa, 50 μM compound) of 87.1%. For the same compound, in experiment [1] (100 nM STa, 50 μM compound, vehicle 124±10, basal 6±2), the “level of cyclic GMP” value came out at 21±4 pmol/mg protein.

As a reminder, the IC50 is the concentration that inhibits the measured activity by half. What is called inhibition is the relative decrease from the control value, in per cent. A higher inhibition goes with strong suppression.
